{
  "source": "patent US20230263822A1",
  "about": "“MODULATION OF FACTOR 11 EXPRESSION” (Ionis Pharmaceuticals, Inc., priority 2008, published 2023)",
  "key": {"blood coagulation [1]": {"test_system": "blood coagulation", "assay": "PT and aPTT vs warfarin (Example 13)", "format": "in vivo, BALB/c mice", "conditions": "for aPTT INR / PT INR: PPP two days after final dose", "method": "In a control group, BALB/c mice were treated with PBS, administered subcutaneously mice twice a week for 3 weeks.\nTwo days after the final dose was administered, PPP was collected and PT and aPTT assays were performed.\nPT and aPTT values provided in Table 16 are reported as International Normalized Ratio (INR) values. […] This ratio was then raised to the power of the International Sensitivity Index (ISI) of the tissue factor used."}, "blood coagulation [2]": {"test_system": "blood coagulation", "assay": "PT and aPTT, combination with warfarin (Example 21)", "format": "in vivo, BALB/c mice", "method": "Plasma was collected from each group 5 days after the last dose was administered. […] In a final group of BALB/c mice, PBS was administered subcutaneously twice a week for three weeks, as a control. Plasma was collected 5 days after the last PBS treatment.\nPT and aPTT values provided in Table 33 are reported as International Normalized Ratio (INR) values."}, "platelet factor-4 (PF-4)": {"test_system": "platelet factor-4 (PF-4)", "assay": "Thrombus formation by PF-4 real-time PCR, FeCl3 induced venous thrombosis model vs warfarin (Example 11)", "format": "in vivo, BALB/c mice", "conditions": "for PF-4 in vena cava, percentage as compared to PBS controls (thrombus formation): + FeCl3", "method": "(§1) Two control groups of BALB/c mice were treated with PBS, administered subcutaneously twice a week for 3 weeks. Two days after the last dose of PBS, mice in both groups were anesthetized with 150 mg/kg ketamine mixed with 10 mg/kg xylazine administered by intraperitoneal injection. Thrombus formation was induced with FeCl3 in all groups of mice except the first control group.\n(§2) In mice undergoing FeCl3 treatment, thrombus formation was induced by applying a piece of filter paper (2×4 mm) pre-saturated with 10% FeCl3 solution directly on the vena cava. After 3 minutes of exposure, the filter paper was removed. Thirty minutes after the filter paper application, a fixed length of the vein containing the thrombus was dissected out for platelet analysis. Liver was collected for RNA analysis.\nReal-time PCR quantification of platelet factor-4 (PF-4) was used to quantify platelets in the vena cava as a measure of thrombus formation."}, "Factor 11 mRNA": {"test_system": "Factor 11 mRNA", "assay": "Factor 11 mRNA in liver, FeCl3 induced venous thrombosis model vs warfarin (Example 11)", "format": "in vivo, BALB/c mice", "conditions": "FeCl3 induced VT model; ISIS 404071 1.25-40 mg/kg s.c. twice a week 3 weeks; warfarin 0.5-5 mg/kg daily 6 days", "method": "as §1, §2\nRNA was extracted from liver tissue for real-time PCR analysis of Factor 11."}, "[3]": {"assay": "Collagenase-induced intracerebral hemorrhage model: hemorrhage volume, neurologic deficit score, mortality (Example 25)", "format": "in vivo, BALB/c mice", "conditions": "ISIS oligonucleotides 40 mg/kg s.c., warfarin 2 mg/kg intraperitoneally, twice a week for two weeks", "method": "In a first cohort, ISIS 404071 was administered subcutaneously to BALB/c mice twice a week for two weeks at a dose 40 mg/kg. […] In a third cohort, ISIS 421208 ([…], 8 mismatches to murine Factor 11, incorporated herein as SEQ ID NO: 14) was administered subcutaneously to BALB/c mice twice a week for two weeks at a dose 40 mg/kg. In a fourth cohort, PBS was administered to BALB/c mice twice a week for two weeks.\nTwo days after receiving their final dose, all mice in all cohorts were anesthetized with […] of avertin. Next, the mice were injected at −1 mm AP, 1 mm R ML, −4 mm DV from bregma flat skull with a 10 μL Hamilton syringe containing 0.075 U collagenase (150 U/mL). Collagenase was delivered over 5 minutes and the needle was kept in place for an additional 5 minutes to prevent reflux. The mice were then analyzed for hemorrhagic size, neurologic deficit score, and mortality.\nTable 37 presents the hemorrhage volume detected in mice after collagenase treatment, Table 38 presents the neurologic deficit score of the mice, and Table 39 presents the mortality rate of the mice. Neurological deficit is measured by a standard scoring system where no deficiency is zero and severe deficit is five."}, "[4]": {"assay": "Tail bleeding assay vs warfarin (Example 12)", "method": "A separate control group of BALB/c mice was treated with PBS, administered subcutaneously twice a week for 3 weeks.\nMice were anesthetized in the chamber with isoflurane and a small piece of tail (approximately 4 mm from the tip) was cut with sterile scissors. The tail cut was immediately placed in a 15 mL Falcon tube filled with approximately 10 mL of 0.9% NaCl buffer solution warmed to 37° C. The blood was collected over the course of 40 minutes. The saline filled tubes were weighed both before and after bleeding."}, "[5]": {"test_system": "mesenteric vein thrombosis", "assay": "Mesenteric vein thrombosis, intravital microscopy (Example 22)", "format": "in vivo", "conditions": "C57BL/6 mice, 50 mg/kg s.c. twice a week for three weeks, 10% FeCl3 on mesenteric vein", "method": "In a first cohort, ISIS 404071 was administered subcutaneously to C57BL/6 mice twice a week for three weeks at a dose of 50 mg/kg. In a second cohort, a control oligonucleotide, ISIS 405277 ([…]; antisense oligonucleotide for Factor 2), incorporated herein as SEQ ID NO: 12 was administered subcutaneously to C57Bl/6 mice twice a week for three weeks at a dose of 50 mg/kg.\nBlood was collected from the retro-orbital venous plexus of naïve C57BL/6 mice by puncture and collected in polypropylene tubes containing 300 μl of heparin (30 U/ml). Platelet rich plasma (PRP) was obtained by centrifugation at 1000 rpm for 5 min. The PRP was transferred to fresh tubes containing 2 μl of Prostaglandin I2 (PGI2) (2 μg/ml) and incubated at 37° C. for 5 min. After centrifugation at 2600 rpm, pellets were resuspended in 1 ml modified Tyrode's-HEPES buffer (137 mM NaCl, 0.3 mM Na2HPO4, 2 mM KCl, 12 mM NaHCO3, 5 mM HEPES, 5 mM glucose, 0.35% BSA, pH 7.2) containing 2 μl of PGI2 and incubated at 37° C. for 5 min. The suspended pellet was centrifuged at 2600 rpm for 5 min. To remove PGI2, the washing step was repeated twice and platelets were fluorescently labeled with calcein AM 2.5 μg/mL (Molecular Probes, Eugene, Oreg.) for 10 min at room temperature.\nFluorescently-labeled platelets were injected intravenously in ISIS 404071 treated and control oligonucleotide treated C57BL/6 mice. […] The exposed mesentery was kept moist throughout the experiment by periodic superfusion with warmed (37° C.) PBS. The mesentery was transluminated with a 12V, 100 W, DC stabilized source. Veins were visualized using a Zeiss (Germany) Axiovert 135 inverted microscope (Objective 32X) connected to an SVHS video recorder (AG-6730; Panasonic, Tokyo, Japan) using a CCD video camera (Hamamatsu Photonic Systems, Hamamatsu City, Japan). Centerline erythrocyte velocity (Vrbc) was measured using an optical Doppler velocimeter (Microcirculation Research Institute, Texas A&M College of Medicine, College Station, Tex.). Venular shear rate (τ) was calculated based on Poiseuille's Law for a newtonian fluid, τ=8(Vmean/Dv), where Dv is the diameter of the venule and Vmean is estimated from the measured Vrbc using the empirical correlation Vmean=Vrbc/1.6.\nMesenteric vein thrombosis was performed two days after the last antisense oligonucleotide injection. Thrombosis was induced by applying Whatman paper soaked in a 10% FeCl3 solution for 5 minutes on the mesenteric vein. The vein was monitored for 40 minutes, or until occlusion. The elapsed time before the first thrombus 30-50 μm in diameter and the elapsed time before blood stopped flowing for 30 seconds were observed."}, "[6]": {"conditions": "BALB/c mice, ISIS 404071 1.25-40 mg/kg, warfarin 0.5-5 mg/kg"}, "[7]": {"conditions": "Warfarin 0.5 mg/kg intraperitoneally daily for 6 days"}, "[8]": {"conditions": "Warfarin 1 mg/kg intraperitoneally daily for 6 days"}, "[9]": {"conditions": "Warfarin 2 mg/kg intraperitoneally daily for 6 days"}, "[10]": {"conditions": "Warfarin 3 mg/kg intraperitoneally daily for 6 days"}, "[11]": {"conditions": "Warfarin 4 mg/kg intraperitoneally daily for 6 days"}, "[12]": {"conditions": "Warfarin 5 mg/kg intraperitoneally daily for 6 days"}, "[13]": {"conditions": "BALB/c mice, ISIS 404071 25 or 50 mg/kg, warfarin 2 mg/kg"}, "[14]": {"conditions": "Warfarin 2 mg/kg once daily for 5 days"}},
  "data": [
    {"compound": "CC(=O)CC(c1ccccc1)c1c(O)c2ccccc2oc1=O", "note": "(centres unmarked) [warfarin]", "values": [
      {"measurement": "PT", "setting": "blood coagulation [1]; [6]", "value": "significantly prolonged at every dosage"},
      {"measurement": "aPTT", "setting": "blood coagulation [1]; [6]", "value": "prolonged, particularly at dosages of 1 mg/kg and higher"},
      {"measurement": "aPTT INR", "setting": "blood coagulation [1]; [7]", "value": 1.10, "unit": "INR"},
      {"measurement": "PT INR", "setting": "blood coagulation [1]; [8]", "value": 2.03, "unit": "INR"},
      {"measurement": "aPTT INR", "setting": "blood coagulation [1]; [8]", "value": 1.31, "unit": "INR"},
      {"measurement": "PT INR", "setting": "blood coagulation [1]; [9]", "value": 2.77, "unit": "INR"},
      {"measurement": "aPTT INR", "setting": "blood coagulation [1]; [9]", "value": 1.54, "unit": "INR"},
      {"measurement": "PT INR", "setting": "blood coagulation [1]; [10]", "value": 22.76, "unit": "INR"},
      {"measurement": "aPTT INR", "setting": "blood coagulation [1]; [10]", "value": 2.90, "unit": "INR"},
      {"measurement": "PT INR", "setting": "blood coagulation [1]; [11]", "value": 6.74, "unit": "INR"},
      {"measurement": "aPTT INR", "setting": "blood coagulation [1]; [11]", "value": 2.18, "unit": "INR"},
      {"measurement": "PT INR", "setting": "blood coagulation [1]; [12]", "value": 9.20, "unit": "INR"},
      {"measurement": "aPTT INR", "setting": "blood coagulation [1]; [12]", "value": 2.29, "unit": "INR"},
      {"measurement": "PT", "setting": "blood coagulation [2]; [13]", "value": "increase PT"},
      {"measurement": "aPTT", "setting": "blood coagulation [2]; [13]", "value": "affected"},
      {"measurement": "PT INR", "setting": "blood coagulation [2]; [14]", "value": 21.33, "unit": "INR"},
      {"measurement": "aPTT INR", "setting": "blood coagulation [2]; [14]", "value": 2.52, "unit": "INR"},
      {"measurement": "PF-4 in vena cava as measure of thrombus formation", "setting": "platelet factor-4 (PF-4); FeCl3 induced VT model, vs PBS control", "value": "reduction of PF-4 in comparison to the PBS control for dosages of 2 mg/kg and higher"},
      {"measurement": "PF-4 in vena cava, percentage as compared to PBS controls (thrombus formation)", "setting": "platelet factor-4 (PF-4); [7]", "value": 128, "unit": "%"},
      {"measurement": "PF-4 in vena cava, percentage as compared to PBS controls (thrombus formation)", "setting": "platelet factor-4 (PF-4); [8]", "value": 124, "unit": "%"},
      {"measurement": "PF-4 in vena cava, percentage as compared to PBS controls (thrombus formation)", "setting": "platelet factor-4 (PF-4); [9]", "value": 80, "unit": "%"},
      {"measurement": "PF-4 in vena cava, percentage as compared to PBS controls (thrombus formation)", "setting": "platelet factor-4 (PF-4); [10]", "value": 21, "unit": "%"},
      {"measurement": "PF-4 in vena cava, percentage as compared to PBS controls (thrombus formation)", "setting": "platelet factor-4 (PF-4); [11]", "value": 12, "unit": "%"},
      {"measurement": "PF-4 in vena cava, percentage as compared to PBS controls (thrombus formation)", "setting": "platelet factor-4 (PF-4); [12]", "value": 33, "unit": "%"},
      {"measurement": "Factor 11 mRNA in liver vs PBS control", "setting": "Factor 11 mRNA", "value": "did not result in significant reduction of Factor 11"},
      {"measurement": "% mortality after collagenase treatment", "setting": "[3]", "value": 80, "unit": "%"},
      {"measurement": "bleeding in tail bleeding assay", "setting": "[4]; BALB/c mice, compared to PBS treated mice", "value": "did increase bleeding"},
      {"measurement": "Blood (tail bleeding, collected over 40 minutes)", "setting": "[4]; [7]", "value": 0.07, "unit": "g"},
      {"measurement": "Blood (tail bleeding, collected over 40 minutes)", "setting": "[4]; [8]", "value": 0.35, "unit": "g"},
      {"measurement": "Blood (tail bleeding, collected over 40 minutes)", "setting": "[4]; [9]", "value": 0.39, "unit": "g"},
      {"measurement": "Blood (tail bleeding, collected over 40 minutes)", "setting": "[4]; [10]", "value": 0.51, "unit": "g"},
      {"measurement": "Blood (tail bleeding, collected over 40 minutes)", "setting": "[4]; [11]", "value": 0.52, "unit": "g"},
      {"measurement": "Blood (tail bleeding, collected over 40 minutes)", "setting": "[4]; [12]", "value": 0.76, "unit": "g"}
    ]},
    {"compound": "ISIS 405277: control oligonucleotide AAGGACCTACACTATGGAAT; antisense oligonucleotide for Factor 2 (listed as DNA, chemistry not given here) [reference compound]", "values": [
      {"measurement": "time of occlusion (occlusive thrombi)", "setting": "[5]", "value": "19.3 ± 0.8", "unit": "min"},
      {"measurement": "time of thrombus formation (30 μm in diameter)", "setting": "[5]", "value": "8.9 ± 0.6", "unit": "min"}
    ]}
  ]
}
